Experimental data: patent US11046647B2, “Activators of the unfolded protein response” (The Board of Trustees of the University of Illinois, priority 2018, dated 2021)

Experiments:
[1] = test system: intracellular ATP levels in TYS-Luc cells; test: Intracellular ATP levels, TYS-Luc cells; format: cell-based, human; details: 10,000 nM thapsigargin, 1 hr
Protocol: TYS-Luc cells were maintained DMSO vehicle (Veh), 1,000 nM BHPI, 1,000 nM (−)-105 with and without 10,000 nM thapsigargin (THG) for the indicated times. ATP levels were determines using a kit and relative ATP levels were from a standard curve. […] (n=3±SEM).

[2] = test system: TYS-Luc cells; test: Cell death with or without thapsigargin, TYS-Luc; format: cell-based, human; details: 1 hour
Description: TYS-Luc cells were maintained in DMSO vehicle (Veh) or BHPI, or (−)-105 with or without thapsigargin (THG) for the indicated times. Blocking the decline in ATP levels (FIG. 19) with THG inhibited (−)-105-induced cell death.

[3] = test system: TYS-Luc and TDG-Luc cells; test: Xenograft studies using TYS-Luc and TDG-Luc cells (BHPI); format: in vivo, mouse; details: after 4 weeks
Description: In xenograft studies using TYS-Luc and TDG-Luc cells after 4 weeks the vehicle control breast tumors had roughly quadrupled in cells.

[4] = test system: ERα positive breast cancer; test: Mouse xenograft model of ERα positive breast cancer (BHPI); format: in vivo; details: reasonable doses
[5] = test system: ERα Negative MCF-10A cells; test: Trypan Blue exclusion cell death assay, MCF-10A; format: cell-based; details: 75 nM, 24 hours
Description: (§1) TRYPAN BLUE: For decades, viable cells have been measured by their ability to exclude the dye Trypan Blue. […] Dead cells, which have lost membrane integrity, take up the dye and are blue. Thus, the percentage of dead cells is the percentage of cells that are Trypan Blue positive out of the total cell population. Quantitative assessment of Trypan Blue uptake uses a cell counter from Fisher. Since the assay is instrument based, there is no observer bias in determining the percentage of Trypan Blue positive cells.
(§2) TRYPAN BLUE ASSAYS: Assays are performed on cells in 6 well plates: 300,000 cells are plated in each well of a 6-well plate in 3 ml of medium. After 24 hours, the DMSO vehicle or the indicated compound is added (in 1000th of the vol.) The cells incubated for an additional 24 hours, and then harvested in 0.25 ml of trypsin, followed after harvest by 0.75 ml of medium. The cells are spun down and resuspended in 100-200 μl of medium left that is over the cell pellet (resuspend cells by pipetting up and down a few times). Add 10 μl to 10 μl of trypan blue. Then 10 μl is inserted into the counting slide. After inserting the slide into the Fisher TC20 counting is automatic (these many cells are needed because an accurate ratio of Trypan Blue positive to Trypan Blue negative cells requires about 200 cells in the field the instrument counts).
In FIG. 28, neither the test compounds nor BHPI kill non-tumorigenic ERα Negative MCF-10A breast cells. ERα Negative MCF-10A cells were maintained for 24 hours in DMSO vehicle or 75 nM of BHPI or 75 nM of each of the indicated test compounds: 4, 6 and 105. Cell death was determined using the instrument-based Trypan Blue exclusion assay. (n=3±SEM).

[6] = test system: CaOV-3 ovarian cancer cells; test: Automated Trypan Blue exclusion cell death assay, Caov-3; format: cell-based, human; details: 24 hours
Protocol: FIG. 33. 105, but not BHPI, kills therapy-resistant ovarian CaOV-3 ovarian cancer cells. (±)-105; Cell death assay: Automated Trypan Blue exclusion. (24 hours post (±)-105)
as §1
as §2, with “After inserting the slide into the Fisher TC20 counting is automatic (these many cells are needed because an accurate ratio of Trypan Blue positive to Trypan Blue negative cells requires about 200 cells in the field the instrument counts).” left out

[7] = test system: TYS-Luc cells; test: Long-term cell culture experiment (treat 2 weeks, regrow 4 weeks), MTS, TYS-Luc; format: cell-based, human; details: 1 μM for 2 weeks, then 4 weeks without drug
Protocol: To simulate the effect of several weeks of treatment of a tumor in a mouse xenograft, long-term cell culture experiments were performed. TYS-Luc cells (T47DERαY537S-Luc cells; ERαY537S is the most lethal ERα mutation seen in metastatic breast cancer) were plated at 4,000 cells/well in 96 well plates. […] After 2 weeks (medium change every 2 days) cell number was determined using MTS and a standard curve of absorbance versus cell number for TYS-Luc cells. Notes: (i) Bars denote the BHPI and (−)-105 arms of the experiment. No drug is present during regrow. […] This allows any surviving cells to regrow. After 4 weeks the cells were assayed using MTS. […] (Note: Visual inspection of the wells confirmed that there were no cells in the well treated for 2 weeks with active (−)-105.) To test whether the cells that regrew after BHPI treatment were resistant to BHPI they were re-treated for another cycle (BHPI Retreat) and shown to retain sensitivity to BHPI killing. (n=8 biological replicates ±SEM.

[8] = test system: parental T47D cells; test: MTS growth assay, parental T47D cells; format: cell-based, human; details: 100 nM and 1 μM; 4 days
Protocol: (§3) ERα containing T47D human breast cancer cells able to survive in 1 μM BHPI were selected by clonal outgrowth. The effect of 100 nM and 1 μM BHPI and (−)-105 on growth of the (BHPI-sensitive) parental T47D cells and partially BHPI-resistant T47D clones 1,3,8, and 11 was evaluated. 4,000 cells/well were plated. Cell number was determined by MTS assay from a standard curve of absorbance versus cell number. […] Thus, in 4 days (−)-105 killed some, but not all, of the resistant cells.

[9] = test system: partially BHPI-resistant T47D clones 1,3,8, and 11; test: MTS growth assay, partially BHPI-resistant T47D clones; format: cell-based, human; details: 100 nM and 1 μM; 4 days
Protocol: as §3

[10] = test system: T47D, TYS and TDG cells; test: MTS proliferation assay (4 days), T47D, TYS and TDG; format: cell-based, human
Protocol: FIG. 30 compares the ability of BHPI and test compounds to inhibit proliferation of T47D, TYS and TDG cells. T47D cells were in medium containing 10 FBS (which contains estrogen), TYS-4 and TDG-1 cells were in medium containing 10% cd-FBS (estrogen depleted). Cells are plated at 2,000 cells/well in 96 well plates. After 24 hours in medium containing FBS or charcoal-dextran treated FBS (depleted of endogenous estrogens), the indicated concentration of each compound (in DMSO at 1/1000th of the volume of medium) was added. After 2 days the medium was changed, and the compounds were added again. After 2 additional days (4 days total) MTS assays are used to evaluate cell proliferation. (n=6 ±S.E.M.).

[11] = test system: OVCAR-3 cells

Compound	block of (−)-105-induced decline in intracellular ATP levels [1]	inhibition of (−)-105-induced cell death [2]	tumor regression [3]	tumor growth [4]	cell death of MCF-10A cells [5]	killing of Caov-3 cells [6]	regrowth of cells after drug removal [7]	effect on growth / cell number [8]	effect on growth / cell number [9]	inhibition of proliferation [10]	tumor growth / detectability ([11]; OVCAR-3 orthotopic xenograft)	tolerability in mice ([11]; both xenograft studies)
C/C=C(/C)C(=O)O[C@H]1C(C)=C2[C@H]([C@@H]1OC(=O)CCCCCCC)[C@@](C)(OC(C)=O)C[C@H](OC(=O)CCC)[C@@]1(O)[C@H]2OC(=O)[C@@]1(C)O [THG, thapsigargin, reference compound]	completely blocked	strong inhibition	–	–	–	–	–	–	–	–	–	–
Cc1cccc2c1NC(=O)C2(c1ccc(O)cc1)c1ccc(O)cc1 [BHPI, reference compound]	–	–	97%-99.5%	stopped tumor growth and induced rapid and substantial tumor regression	neither BHPI nor any of the test compounds induce significant death	blocks growth of Caov-3 cells but does not kill them	robust regrowth	blocked growth and killed many of the T47D cells	inhibited growth but could not stop growth of the resistant clones	effectively inhibit proliferation	strongly reduced tumor growth	well tolerated
